Test results taken from US9084828B2, “Oligomer-protein tyrosine kinase inhibitor conjugates” (Nektar Therapeutics, priority 2009, dated 2015).

Molecular target: ABL (Homo sapiens, UniProt P00519)
Test: ABL tyrosine kinase inhibition, off-chip incubation mobility-shift kinase assay (Caliper LABCHIP 3000)
Conditions: for IC50: ABL, ATP at Km 14 μM, unit inferred; for ABL AVG % Activity at Specific Concentration: average of replicate wells
[1] = at 1.0E−09 (concentration unit not given)
[2] = at 1.0E−10 (concentration unit not given)
[3] = at 1.0E−11 (concentration unit not given)
[4] = at 3.0E−09 (concentration unit not given)
[5] = at 3.0E−10 (concentration unit not given)
[6] = at 3.0E−11 (concentration unit not given)

Sequence of ABL (P00519 whole entry): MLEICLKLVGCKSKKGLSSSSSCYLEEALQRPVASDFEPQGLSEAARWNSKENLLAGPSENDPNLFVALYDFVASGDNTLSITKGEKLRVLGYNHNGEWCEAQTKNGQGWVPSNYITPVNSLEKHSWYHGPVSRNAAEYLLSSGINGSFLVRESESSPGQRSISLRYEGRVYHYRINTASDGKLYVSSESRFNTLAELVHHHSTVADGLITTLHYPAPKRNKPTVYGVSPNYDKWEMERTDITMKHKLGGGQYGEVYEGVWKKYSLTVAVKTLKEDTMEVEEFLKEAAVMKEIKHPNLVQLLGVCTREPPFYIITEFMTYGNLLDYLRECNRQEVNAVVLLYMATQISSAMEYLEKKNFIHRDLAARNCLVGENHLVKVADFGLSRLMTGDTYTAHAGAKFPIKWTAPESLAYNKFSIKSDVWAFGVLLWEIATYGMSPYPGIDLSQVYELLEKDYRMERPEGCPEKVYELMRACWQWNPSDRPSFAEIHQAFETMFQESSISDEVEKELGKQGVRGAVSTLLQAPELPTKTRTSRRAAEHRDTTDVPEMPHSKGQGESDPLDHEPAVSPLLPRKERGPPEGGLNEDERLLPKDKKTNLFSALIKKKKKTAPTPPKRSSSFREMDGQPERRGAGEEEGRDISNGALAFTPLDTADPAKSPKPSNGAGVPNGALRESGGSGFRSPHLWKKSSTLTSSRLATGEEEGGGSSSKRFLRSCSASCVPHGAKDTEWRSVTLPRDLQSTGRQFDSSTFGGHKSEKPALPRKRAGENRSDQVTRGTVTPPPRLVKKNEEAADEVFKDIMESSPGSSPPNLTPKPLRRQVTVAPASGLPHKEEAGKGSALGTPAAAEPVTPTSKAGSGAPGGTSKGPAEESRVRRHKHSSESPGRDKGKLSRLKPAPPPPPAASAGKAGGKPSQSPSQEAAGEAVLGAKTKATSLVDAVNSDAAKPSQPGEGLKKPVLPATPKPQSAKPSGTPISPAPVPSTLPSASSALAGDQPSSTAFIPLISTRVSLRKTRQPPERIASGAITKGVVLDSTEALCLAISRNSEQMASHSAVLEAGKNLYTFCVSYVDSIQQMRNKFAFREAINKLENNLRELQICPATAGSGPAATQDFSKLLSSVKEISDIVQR

SMILES	IC50 [nM]	ABL AVG % Activity at Specific Concentration [1] [%]	ABL AVG % Activity at Specific Concentration [2] [%]	ABL AVG % Activity at Specific Concentration [3] [%]	ABL AVG % Activity at Specific Concentration [4] [%]	ABL AVG % Activity at Specific Concentration [5] [%]	ABL AVG % Activity at Specific Concentration [6] [%]
COCCOCCOCCOCC(=O)NC(CC(C)C)C(=O)OCCN1CCN(c2cc(Nc3ncc(C(=O)Nc4c(C)cccc4Cl)s3)nc(C)n2)CC1 (centres unmarked) [mPEG3-Leu-Dasatinib]	0.43	14	85	99	1	62	97
COCCOCCOCCOCC(=O)N[C@H](C(=O)OCCN1CCN(c2cc(Nc3ncc(C(=O)Nc4c(C)cccc4Cl)s3)nc(C)n2)CC1)C(C)C [mPEG3-Val-Dasatinib]	0.37	10	85	98	0	54	95

Now those with a lower IC50, led by results:

IC50 [nM]	ABL AVG % Activity at Specific Concentration [1] [%]	ABL AVG % Activity at Specific Concentration [2] [%]	ABL AVG % Activity at Specific Concentration [3] [%]	ABL AVG % Activity at Specific Concentration [4] [%]	ABL AVG % Activity at Specific Concentration [5] [%]	ABL AVG % Activity at Specific Concentration [6] [%]	SMILES
0.29	2	80	98	−1	44	92	COCCOCCOCCOCC(=O)OCCN1CCN(c2cc(Nc3ncc(C(=O)Nc4c(C)cccc4Cl)s3)nc(C)n2)CC1 [mPEG3-COO-Dasatinib]
0.3	4	80	97	−1	45	94	COCCOCCOCCOCCOCCNC(=O)OCCN1CCN(c2cc(Nc3ncc(C(=O)Nc4c(C)cccc4Cl)s3)nc(C)n2)CC1 [mPEG5-NHCOO-Dasatinib]
0.31	4	80	97	−1	47	92	COCCOCCOCCOCCOCCOCCOCCOCCOCCNC(=O)OCCN1CCN(c2cc(Nc3ncc(C(=O)Nc4c(C)cccc4Cl)s3)nc(C)n2)CC1 [mPEG9-NHCOO-Dasatinib]
